Laboratory results: patent publication US20160115540A1, “PRODRUGS AND DRUGS” (Biogen MA Inc., priority 2013, published 2016)
Counter-ions that a name gives are not always drawn.

System: jejunum
Test: Transcriptional profiling on Affymetrix GeneChips, single dose, naïve mice: jejunum
Assay type: in vivo, C57BL/6 mice
Settings: jejunum, 100DMF-vs-Veh
Procedure: Treated mice were sacrificed at 2, 7, or 12 hours. Tissues (liver, spleen, kidney, jejunum, cortex, hippocampus, striatum and whole blood) were collected and analyzed by transcriptional profiling on mouse Affymetrix GeneChips.
Tissues (liver, spleen, kidney, jejunum, cortex, hippocampus, striatum and whole blood) were collected and analyzed by transcriptional profiling on mouse Affymetrix GeneChips.
Animals were exposed to CO2 and whole blood collected via cardiac puncture. Two 100 μl aliquots of whole blood were collected in 1.5 mL microcentrifuge tubes and snap frozen in liquid nitrogen. Peripheral (liver, spleen, kidney and jejunum) and CNS brain (cerebellum, hippocampus, striatum and cortex) tissues were harvested and snap frozen in liquid nitrogen, with special care taken to collect tissues of similar size and from the same location. All samples were stored at −80° C. until RNA extraction was conducted.
For RNA preparation, frozen tissues were placed in 2 mL RNAse-free 96-well blocks with 1.5 mL QIAzol Lysis Reagent (QIAgen) and a 3.2 mm stainless steel bead (BioSpec Products, Bartlesville, Okla.). Tissues were disrupted for four cycles of 45 seconds in a Mini-Beadbeater (Biospec Products). RNA was extracted in chloroform and the aqueous phase was mixed with an equal volume of 70% ethanol. Extracted RNA was applied to RNeasy 96 plates and purified by the spin method according to the manufacturer's protocol (RNeasy 96 Universal Tissue Protocol, QIAgen, Hilden Germany).
Automated sample amplifications and biotin labelings were carried out using the NuGEN Ovation RNA Amplification system V2 (Cat #3100), Ovation WB reagent (Cat #1300) and Encore Biotin module (Cat #4200) (NuGEN Technologies, Inc, San Carlos, Calif.) according to manufacturer's recommendations using an Arrayplex automated liquid handler (Beckman Coulter, Indianapolis, Ind.). Two micrograms of biotin labeled sscDNA probe were hybridized to Affymetrix GeneChip Affymetrix HT_MG-430_PM plate arrays with modified conditions as described in Allaire et al. Washing and staining of the hybridized arrays were completed as described in the GeneChip Expression analysis technical manual for HT plate arrays using the Genechip® Array Station (Affymetrix, Santa Clara, Calif.) with modifications as described in Allaire et al. The processed GeneChip® plate arrays were scanned using GeneTitan scanner (Affymetrix, Santa Clara, Calif.).
Affymetrix scans were subject to quality control (QC) measures. These tests included a visual inspection of the distribution of raw signal intensities and an assessment of RNA degradation, relative log expression (RLE), and normalized unsealed standard error (NUSE). All sample scans that passed these QC metrics were included in the analysis.
All CEL files were subjected to GC-content-based Robust Multi-array Average (GCRMA) normalization (version 2.20.0) (Irizarry R A, et al. Nucleic Acids Res 2003; 31:e15; Li C, et al. Genome Biol 2001; 2:[…]0032). Expression levels were log (base 2) transformed.
All calculations and analyses were carried out using R (version 2.11.1) and Bioconductor computational tools (Gentleman R. Springer Science+Business Media 2005).

COC(=O)/C=C/C(=O)OC [DMF, dimethyl fumarate]
FC Tox3 (1436600_PM_at) (2 h): 1.70
FC Tsku (1440230_PM_at) (2 h): 1.61
FC Ugt2b5 (1419622_PM_at) (2 h): 3.40
FC Ugt2b35 (1439624_PM_at) (2 h): 3.22
FC Ugt2b36 (1455595_PM_at) (2 h): 2.07
FC Unc5cl (1429950_PM_at) (2 h): −1.53
FC probe 1441046_PM_at (2 h): 1.54
FC probe 1443118_PM_at (2 h): 1.91
FC probe 1444265_PM_at (2 h): 1.75
FC probe 1445980_PM_at (2 h): 2.92
FC probe 1446045_PM_at (2 h): 1.52
FC probe 1447411_PM_at (2 h): 2.88
FC probe 1459091_PM_at (2 h): 1.98
FC 9430069I07Rik (1431672_PM_at) (7 h): 2.76
FC Abcc3 (1428988_PM_at) (7 h): 1.88
FC Acsm5 (1437662_PM_at) (7 h): 1.60
FC Acss2 (1446542_PM_at) (7 h): 1.71
FC Akr1b8 (1448894_PM_at) (7 h): 8.53
FC Akr1c13 (1418672_PM_at) (7 h): 1.61
FC Akr1c19 (1455454_PM_at) (7 h): 2.07
FC Cbr1 (1460196_PM_at) (7 h): 1.65
FC Cbr3 (1427912_PM_at) (7 h): 22.39
FC Ces1e (1419510_PM_at) (7 h): 2.10
FC Ces1f (1424266_PM_s_at) (7 h): 3.58
FC Ces1g (1449486_PM_at) (7 h): 4.67
FC Ddc (1426215_PM_at) (7 h): 1.74
FC G6pd2 (1422327_PM_s_at) (7 h): 1.82
FC G6pdx (1448354_PM_at) (7 h): 1.54
FC Gclc (1424296_PM_at) (7 h): 2.06
FC Gclc (1455959_PM_s_at) (7 h): 1.88
FC Gsr (1421816_PM_at) (7 h): 2.83
FC Gss (1441931_PM_x_at) (7 h): 1.89
FC Gss (1448273_PM_at) (7 h): 1.97
FC Gsta2 (1421040_PM_a_at) (7 h): 5.81
FC Gsta2 (1421041_PM_s_at) (7 h): 1.72
FC Gsta3 (1423436_PM_at) (7 h): 4.27
FC Gsta3 (1423437_PM_at) (7 h): 3.89
FC Gstm1 (1416416_PM_x_at) (7 h): 3.19
FC Gstm1 (1425627_PM_x_at) (7 h): 3.45
FC Gstm1 (1448330_PM_at) (7 h): 3.40
FC Gstm2 (1416411_PM_at) (7 h): 1.58
FC Gstm3 (1427473_PM_at) (7 h): 2.82
FC Gstm3 (1427474_PM_s_at) (7 h): 1.79
FC Gstm4 (1424835_PM_at) (7 h): 3.83
FC Gstm6 (1422072_PM_a_at) (7 h): 1.94
FC Htatip2 (1451814_PM_a_at) (7 h): 1.51
FC Nqo1 (1423627_PM_at) (7 h): 2.31
FC Pir (1429001_PM_at) (7 h): 3.79
FC Setd4 (1425239_PM_at) (7 h): 1.90
FC Setd4 (1435405_PM_at) (7 h): 1.50
FC Setd4 (1460373_PM_a_at) (7 h): 1.50
FC Slc5a4b (1422757_PM_at) (7 h): 1.67
FC Txnrd1 (1424487_PM_x_at) (7 h): 1.60
FC Ugt2b5 (1419622_PM_at) (7 h): 3.42
FC Ugt2b35 (1439624_PM_at) (7 h): 2.66
FC Ugt2b36 (1455595_PM_at) (7 h): 2.23
FC Aldh1a7 (1418601_PM_at) (12 h): 1.65
FC Gstm1 (1416416_PM_x_at) (12 h): 3.56
FC Gstm2 (1416411_PM_at) (12 h): 2.04
